# Experimental data published in patent US20040229379A1, “Assay” (priority 2003, published 2004).
# Test system: PDHK
# Experiment: Binding affinity of fluorescent binder structures for PDHK
structure (smiles),measurement,value
Cc1cc(C)n2c1C=C1C=CC(CCC(=O)NCc3ccc(C(=O)N4C[C@H](C)N(C(=O)[C@@](C)(O)C(F)(F)F)C[C@H]4C)cc3)=[N+]1[B-]2(F)F [(IV)],binding affinity for PDHK relative to (III/IIIA),lower binding affinity for PDHK than (III/IIIA)
